According to publication PMC5267425, “Identification of small molecule modulators of HIV-1 Tat and Rev protein accumulation” (Retrovirology, 2017):

Test system: cellular gene expression in HeLa rtTA HIV∆Mls cells

## Cc1cc(NCc2cccnc2)n2ncc(-c3ccc(Cl)cc3)c2n1 [Compound 791, 3-(4-chlorophenyl)-5-methyl-N-(3-pyridinylmethyl)pyrazolo[1,5-a]pyrimidin-7-amine]
  AARS Mean fold change: 2.833
  ABCC3 Mean fold change: 2.692
  ABCG1 Mean fold change: 3.311
  ABHD6 Mean fold change: 1.566
  AC004490.2 Mean fold change: 2.204
  AC006486.1 expression fold change: 0.690
  AC008763.1 expression fold change: 0.679
  AC009133.2 Mean fold change: 1.588
  AC010442.1 Mean fold change: 1.579
  AC013356.3 expression fold change: 1.345
  AC037487.1 expression fold change: 1.347
  AC068020.2 Mean fold change: 2.561
  AC092295.7 expression fold change: 0.786
  AC135352.1 Mean fold change: 1.465
  AC138904.2 Mean fold change: 2.431
  ACADVL Mean fold change: 1.427
  ACAP3 expression fold change: 0.896
  ACER2 expression fold change: 1.385
  ACN9 expression fold change: 1.202
  ACOT9 expression fold change: 0.729
  ACTN1 expression fold change: 0.801
  ADD1 expression fold change: 0.880
  ADI1 expression fold change: 0.759
  ADO expression fold change: 1.398
  AGPAT2 expression fold change: 0.738
  AGPAT9 Mean fold change: 1.761
  AGXT2L2 Mean fold change: 1.839
  AHCTF1 expression fold change: 1.155
  AIDA expression fold change: 1.199
  AIFM1 expression fold change: 1.118
  AKIRIN2 expression fold change: 1.270
  ALDH2 Mean fold change: 1.928
  ALDOC expression fold change: 0.728
  ALG5 expression fold change: 1.288
  ALKBH8 expression fold change: 1.320
  ALX1 expression fold change: 1.051
  ANKHD1 expression fold change: 1.136
  ANKRD40 expression fold change: 1.260
  ANKRD50 expression fold change: 1.377
  ANKS1A expression fold change: 0.869
  ANXA5 expression fold change: 0.844
  ANXA6 expression fold change: 0.632
  AP2M1 expression fold change: 0.841
  AP3S2 expression fold change: 1.386
  AP000926.1 Mean fold change: 1.726
  APBA3 expression fold change: 1.129
  APOBEC3B expression fold change: 0.520
  ARF1 expression fold change: 0.787
  ARF3 expression fold change: 0.882
  ARG2 Mean fold change: 3.609
  ARHGAP11A expression fold change: 0.778
  ARHGAP26 Mean fold change: 1.819
  ARHGEF2 Mean fold change: 2.222
  ARHGEF4 Mean fold change: 1.690
  ARL4D expression fold change: 1.406
  ARL17B Mean fold change: 1.427
  ARMC10 expression fold change: 1.383
  ARNTL Mean fold change: 1.815
  ARPC5 expression fold change: 0.694
  ARSJ expression fold change: 1.309
  ASB7 expression fold change: 1.181
  ASB8 expression fold change: 1.184
  ASCC1 expression fold change: 1.134
  ASNS Mean fold change: 5.898
  ASNSD1 expression fold change: 1.208
  ATF4 Mean fold change: 1.683
  ATG4B expression fold change: 1.240
  ATG12 expression fold change: 1.178
  ATG16L1 expression fold change: 1.132
  ATIC expression fold change: 1.115
  ATP2B1 Mean fold change: 1.479
  ATP5H expression fold change: 1.145
  ATP6AP1L Mean fold change: 1.979
  ATP6V0A1 expression fold change: 0.795
  ATP6V1B2 expression fold change: 1.261
  ATP8B1 expression fold change: 0.527
  ATXN7L2 expression fold change: 1.076
  AUP1 expression fold change: 1.231
  AVL9 expression fold change: 1.338
  AXIN1 expression fold change: 1.266
  B3GNT1 expression fold change: 0.674
  B3GNT5 Mean fold change: 2.008
  B4GALT5 expression fold change: 1.380
  BAT3 expression fold change: 0.841
  BAZ1B expression fold change: 1.159
  BCAR1 expression fold change: 0.869
  BCAR3 Mean fold change: 1.528
  BCL7A expression fold change: 1.302
  BCOR expression fold change: 0.835
  BCORL1 expression fold change: 0.826
  BEST1 Mean fold change: 1.710
  BHLHB9 expression fold change: 0.836
  BICD1 expression fold change: 1.280
  BIVM expression fold change: 1.241
  BMP2K expression fold change: 1.246
  BMPR1B expression fold change: 0.758
  BRWD2 expression fold change: 1.126
  BST2 expression fold change: 0.606
  BTRC expression fold change: 1.086
  BUD13 expression fold change: 1.160
  C1D expression fold change: 0.907
  C1orf27 expression fold change: 1.263
  C1orf43 Mean fold change: 1.578
  C1orf103 expression fold change: 1.312
  C1orf109 expression fold change: 1.133
  C1orf115 expression fold change: 0.712
  C1orf131 expression fold change: 1.232
  C2orf18 Mean fold change: 2.057
  C2orf44 expression fold change: 1.212
  C2orf49 expression fold change: 1.330
  C2orf60 Mean fold change: 1.552
  C3orf19 expression fold change: 1.302
  C3orf59 expression fold change: 0.622
  C4orf23 expression fold change: 1.124
  C4orf27 expression fold change: 1.269
  C4orf32 Mean fold change: 1.456
  C4orf43 expression fold change: 1.083
  C5orf13 expression fold change: 0.675
  C5orf15 expression fold change: 0.799
  C5orf30 expression fold change: 1.191
  C5orf37 expression fold change: 1.270
  C5orf45 expression fold change: 1.325
  C5orf51 expression fold change: 1.347
  C6orf48 Mean fold change: 2.042
  C6orf145 expression fold change: 0.730
  C7orf23 expression fold change: 1.243
  C7orf25 expression fold change: 1.354
  C7orf27 expression fold change: 0.879
  C7orf42 expression fold change: 0.864
  C7orf44 expression fold change: 1.193
  C9orf3 expression fold change: 0.575
  C9orf6 expression fold change: 1.317
  C9orf46 expression fold change: 1.230
  C9orf114 expression fold change: 1.133
  C9orf163 expression fold change: 0.820
  C10orf76 expression fold change: 0.797
  C10orf114 expression fold change: 0.622
  C11orf17 Mean fold change: 1.495
  C11orf57 expression fold change: 1.379
  C11orf73 expression fold change: 1.274
  C12orf35 expression fold change: 1.357
  C12orf41 Mean fold change: 1.427
  C12orf65 expression fold change: 1.231
  C12orf73 expression fold change: 1.310
  C13orf23 expression fold change: 1.356
  C14orf79 Mean fold change: 1.679
  C14orf104 expression fold change: 1.167
  C14orf147 expression fold change: 0.683
  C14orf167 Mean fold change: 1.721
  C15orf61 expression fold change: 1.088
  C16orf63 expression fold change: 1.203
  C16orf72 expression fold change: 1.363
  C17orf75 expression fold change: 1.209
  C17orf80 expression fold change: 1.234
  C18orf19 expression fold change: 1.208
  C18orf25 expression fold change: 1.336
  C18orf45 expression fold change: 1.218
  C19orf28 expression fold change: 0.696
  C19orf55 expression fold change: 1.216
  C19orf57 Mean fold change: 2.062
  C20orf29 expression fold change: 0.759
  C20orf177 expression fold change: 1.123
  C22orf23 Mean fold change: 1.568
  CA5B Mean fold change: 1.804
  CALD1 expression fold change: 0.520
  CAP2 expression fold change: 0.518
  CAPN1 expression fold change: 0.764
  CARS Mean fold change: 2.332
  CASC5 expression fold change: 0.767
  CASP8 expression fold change: 1.182
  CAT Mean fold change: 1.598
  CAV2 expression fold change: 0.581
  CC2D2A expression fold change: 0.869
  CCBL2 expression fold change: 1.248
  CCDC22 expression fold change: 1.134
  CCDC25 expression fold change: 1.260
  CCDC40 Mean fold change: 1.891
  CCDC41 expression fold change: 1.182
  CCDC55 expression fold change: 1.136
  CCDC85C expression fold change: 0.665
  CCDC91 Mean fold change: 1.516
  CCDC92 expression fold change: 1.319
  CCDC99 expression fold change: 0.607
  CCDC102A expression fold change: 0.591
  CCDC150 expression fold change: 0.840
  CCNB1IP1 Mean fold change: 1.940
  CCNJ expression fold change: 1.250
  CCNT2 expression fold change: 1.170
  CD276 expression fold change: 0.827
  CDADC1 expression fold change: 1.201
  CDC42EP3 expression fold change: 0.641
  CDK1 expression fold change: 0.737
  CDK4 expression fold change: 1.239
  CDK8 expression fold change: 1.082
  CDK17 expression fold change: 1.247
  CDKL1 expression fold change: 0.840
  CDKN2C expression fold change: 0.598
  CEBPG Mean fold change: 3.507
  CEP70 expression fold change: 0.860
  CES2 Mean fold change: 1.537
  CGN expression fold change: 0.519
  CGRRF1 Mean fold change: 1.453
  CHAC1 Mean fold change: 6.989
  CHCHD4 expression fold change: 1.327
  CHN1 expression fold change: 0.798
  CHN2 expression fold change: 1.345
  CLCN2 expression fold change: 1.278
  CLCN5 Mean fold change: 1.584
  CLEC2D Mean fold change: 1.905
  CLIC4 Mean fold change: 1.468
  CLPTM1L expression fold change: 0.747
  CLUAP1 Mean fold change: 1.416
  CNN2 expression fold change: 0.712
  CNNM3 expression fold change: 0.809
  CNOT4 expression fold change: 1.191
  COG1 expression fold change: 1.328
  COG8 expression fold change: 1.183
  COL4A3BP Mean fold change: 1.572
  COMMD1 expression fold change: 0.832
  COMMD4 expression fold change: 0.856
  COPS7B Mean fold change: 1.473
  COX7A2L expression fold change: 1.194
  COX7A2 expression fold change: 0.949
  COX19 expression fold change: 1.369
  CPD Mean fold change: 1.588
  CREB1 expression fold change: 1.234
  CRTC3 expression fold change: 0.714
  CSE1L expression fold change: 0.867
  CSGALNACT2 expression fold change: 1.343
  CSNK1A1 Mean fold change: 1.528
  CSNK2A1 expression fold change: 1.245
  CSRNP2 expression fold change: 1.269
  CSRP2BP Mean fold change: 1.435
  CSRP2 expression fold change: 0.574
  CST3 expression fold change: 1.145
  CTC-241N9.1 Mean fold change: 1.850
  CTD-2526A2.1 Mean fold change: 1.524
  CTH Mean fold change: 2.646
  CTNND1 expression fold change: 0.683
  CTSL1 Mean fold change: 1.489
  CTTNBP2 expression fold change: 0.629
  CUEDC2 expression fold change: 1.278
  CWC25 expression fold change: 1.169
  CXADR expression fold change: 1.102
  CYFIP1 expression fold change: 0.887
  CYP2R1 Mean fold change: 1.818
  CYP2S1 expression fold change: 1.098
  CYTH3 expression fold change: 0.536
  DAB2 expression fold change: 0.623
  DAG1 expression fold change: 0.608
  DAGLB expression fold change: 0.867
  DBF4B expression fold change: 0.760
